Measurements from patent US6362166B1, “Antipicornaviral compounds and methods for their use and preparation” (Agouron Pharmaceuticals, Inc., priority 1996, dated 2002).
pEC50, pKi: −log10 of the molar value. Like-named read-outs stand apart in the source and are kept apart here.

Key:
[1] = biological target: T1, Recombinant Rhinovirus 3C protease (RVP) serotype 16 (Human rhinovirus 16, UniProt Q82122); assay: Inhibition of Rhinovirus Protease (fluorescence resonance energy transfer assay), serotype 16; format: biochemical, human rhinovirus (HRV); settings: for kobs/I / kinact/KI: progress curves in enzyme start experiments; for kinact/KI: pH 7.6, read-out: kobs/I
T1 construct: Recombinant Rhinovirus 3C proteases from serotypes 14, 16, 2 or 89; made in house
T1 sequence (Q82122 1511-1693): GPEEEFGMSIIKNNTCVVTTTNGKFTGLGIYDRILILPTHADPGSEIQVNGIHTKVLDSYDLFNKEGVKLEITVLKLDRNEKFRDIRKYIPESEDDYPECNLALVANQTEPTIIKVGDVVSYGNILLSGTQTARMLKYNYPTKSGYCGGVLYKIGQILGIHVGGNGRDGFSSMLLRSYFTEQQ
Experimental: (§1) Stock solution (50 mM, in DMSO) of various compounds were prepared; dilutions were in the same solvent. Recombinant Rhinovirus 3C proteases from serotypes 14, 16, 2 or 89 were prepared by the following standard chromatographic procedures: (1) ion exchange using Q Sepharose Fast Flow from Pharmacia; (2) affinity chromatography using Affi-Gel Blue from Biorad; and (3) sizing using Sephadex G-100 from Pharmacia. Assays contained 2% DMSO, 50 mM tris pH 7.6, 1 mM EDTA, a compound at the indicated concentrations, approximately 1 μM substrate, and 50-100 nM protease. […] The kobs/I values were obtained from reactions initiated by addition of enzyme rather than substrate. RVP activity is measured in the fluorescence resonance energy transfer assay. The substrate was (N-terminal) DABCYL-([…]Gyl)-EDANS. In the uncleaved peptide, the EDANS fluorescence was quenched by the proximal DABCYL moeity. When the peptide was cleaved, the quenching was relieved, and activity was measured as an increase in fluorescence signal.
(§2) In the above table, all data is RVP serotype-14 unless otherwise noted in parentheses. All strains of human rhinovirus (HRV) were purchased from American Type Culture Collection (ATCC), except for serotype 14, which was produced from the infectious cDNA clone constructed and supplied to us by Dr. Roland Rueckert at the Institute for Molecular Virology, University of Wisconsin, Madison, Wisc. […] The data in the column designated kobs/I was measured from progress curves in enzyme start experiments.

[2] = tested on: HRV-14; assay: Antirhinoviral HI-HeLa Cell Culture Assay (Cell Protection Assay, XTT dye reduction); format: cell-based, human rhinovirus (HRV) serotype-14
Summary of the method: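 Protection measured via XTT dye reduction (450/650 nm) two days after compound treatment of HI-HeLa cells, mock-infected or infected with cDNA-derived HRV-14 at m.o.i. 0.13. CC50 divided by EC50 gives the therapeutic index.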

[3] = biological target: T2, Recombinant Rhinovirus 3C protease (RVP) serotype 2 (Human rhinovirus 2, UniProt P04936); assay: Inhibition of Rhinovirus Protease (fluorescence resonance energy transfer assay), serotype 2; format: biochemical, human rhinovirus (HRV); settings: for kobs/I: progress curves in enzyme start experiments
T2 construct: Recombinant Rhinovirus 3C proteases from serotypes 14, 16, 2 or 89; made in house
T2 sequence (P04936 1508-1690): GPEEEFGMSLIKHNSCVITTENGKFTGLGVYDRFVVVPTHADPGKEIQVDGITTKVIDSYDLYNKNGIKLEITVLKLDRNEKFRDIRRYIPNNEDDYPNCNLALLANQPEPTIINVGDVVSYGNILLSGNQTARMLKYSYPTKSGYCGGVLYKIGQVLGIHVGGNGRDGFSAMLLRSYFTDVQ
Experimental: as §1, §2

[4] = tested on: HI-HeLa cells; assay: Cytotoxicity in mock-infected HI-HeLa cells (antirhinoviral assay, XTT); format: cell-based
[5] = biological target: T3, Recombinant Rhinovirus 3C protease (RVP) serotype-14 (Human rhinovirus 14, UniProt P03303); assay: Inhibition of Rhinovirus Protease (fluorescence resonance energy transfer assay), serotype 14; format: biochemical, human rhinovirus (HRV); settings: for kobs/I: progress curves in enzyme start experiments; for kinact/KI: pH 7.6, read-out: kobs/I
T3 construct: Recombinant Rhinovirus 3C proteases from serotypes 14, 16, 2 or 89; made in house
T3 sequence (P03303 1538-1719): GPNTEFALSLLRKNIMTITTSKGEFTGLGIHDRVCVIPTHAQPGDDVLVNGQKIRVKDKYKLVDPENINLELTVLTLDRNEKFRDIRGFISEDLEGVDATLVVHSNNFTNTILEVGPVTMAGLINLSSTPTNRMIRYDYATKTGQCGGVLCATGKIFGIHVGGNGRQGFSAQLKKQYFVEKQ

[6] = Cytotoxicity in mock-infected HI-HeLa cells (antirhinoviral assay, XTT); format: cell-based; settings: human; mock-infected HI-HeLa cells; two days; XTT; read-out: CC50
[7] = HI-HeLa cells infected with HRV-14, m.o.i. 0.13, two days, XTT, read-out: EC50
[8] = Rhinovirus B, HRV14, 48 h, HI-HeLa cells infected with HRV-14, m.o.i. 0.13, two days, XTT, read-out: EC50
[9] = RVP serotype-14, 10 minute preincubation, substrate start, read-out: INHIB (Ki)
[10] = mock-infected HI-HeLa cells, two days, XTT, read-out: CC50

| SMILES | kobs/I ([1]; RVP serotype 16) | pEC50 [2, 7] | kobs/I [3] | CC50 [4] [µM] | kobs/I ([5]; RVP serotype-14) | further results |
| --- | --- | --- | --- | --- | --- | --- |
| CCOC(=O)/C=C/[C@H](CCC(N)=O)NC(=O)[C@H](Cc1ccccc1)NC(=O)[C@H](CSCc1ccccc1)NC(=O)OCc1ccccc1 [Compound 165] | 20,200 M-1 sec-1 | 6.70 | 5,600 M-1 sec-1 | > 100 | 97,000 M-1 sec-1 |  |
| CCOC(=O)/C=C/[C@H](CCC(N)=O)NC(=O)[C@H](Cc1ccccc1)NC(=O)[C@H](CC(C)C)NC(=O)SC(C)C [Compound 170] | 30,000 M-1 sec-1 | 6.70 | 8,400 M-1 sec-1 | > 100 | 85,300 M-1 sec-1 |  |
| CC(C)C[C@H](NC(=O)OCc1ccccc1)C(=O)N[C@@H](Cc1ccccc1)C(=O)N[C@H](/C=C/C(=O)n1ccc2ccccc21)CCC(N)=O [Compound 89] |  |  |  |  |  | kinact/KI ([1]; RVP serotype 16): 2800 M⁻¹ s⁻¹; pEC50 [2, 8]: 5.74; CC50 at 2 days [6]: 29 µM; pKi [5]: 5.30; kinact/KI [5]: 53400 M⁻¹ s⁻¹ |
| COC(=O)/C=C\[C@H](CCC(N)=O)NC(=O)[C@H](Cc1ccccc1)NC(=O)[C@H](CC(C)C)NC(=O)OCc1ccccc1 [Compound 7, Methyl-3-(CBZ-L-Leu-L-Phe-L-Gln)-Z-Propenoate] |  |  |  |  |  | inhibition at 1 µM ([1]; RVP serotype 16, 1 μM compound, 10 minute preincubation with 50 nM RVP, read-out: INHIB (percent inhibition)): 42%; pEC50 [2, 8]: 5.49; CC50 at 2 days [6]: > 320 µM; pKi [5]: 5.02; kinact/KI [5]: 2400 M⁻¹ s⁻¹ |
| CCOC(=O)/C=C/[C@H](CCC(N)=O)NC(=O)[C@H](Cc1ccc(CCO)cc1)NC(=O)[C@H](CC(C)C)NC(=O)OCc1ccccc1 [Compound 139] | 1,259 M-1 sec-1 | 5.46 | 691 M⁻¹ s⁻¹ | > 320 | 43,140 M-1 sec-1 |  |
| CCOC(=O)/C=C/[C@H](CCC(N)=O)NC(=O)[C@H](Cc1ccccc1)NC(=O)[C@H](CO)NC(=O)OCc1ccccc1 [Compound 149] | 7,700 M-1 sec-1 | 5.75 | 2,840 M-1 sec-1 | > 320 | 39,940 M-1 sec-1 |  |
| CCOC(=O)/C=C/[C@H](CCC(N)=O)NC(=O)[C@H](Cc1ccccc1)NC(=O)[C@@H](NC(=O)OCc1ccccc1)C(C)C [Compound 146] | 16,900 M-1 sec-1 | 6.42 | 7,790 M-1 sec-1 | > 320 | 62,500 M-1 sec-1 |  |
| CCOC(=O)/C=C/[C@H](CCC(N)=O)NC(=O)[C@H](Cc1ccccc1)NC(=O)[C@H](CC(=O)N(C)C)NC(=O)OCc1ccccc1 [Compound 158] | 6,400 M-1 sec-1 | 5.23 | 2,200 M-1 sec-1 | > 320 | 22,600 M-1 sec-1 | pKi [5, 9]: 4.77 |
| CCC[C@H](NC(=O)[C@H](CC(C)C)NC(=O)OCc1ccccc1)C(=O)N[C@H](/C=C/C(=O)OCC)CCC(N)=O [Compound 137] | 1,157 M-1 sec-1 | 3.65 | 643 M⁻¹ s⁻¹ | > 320 | 2,344 M-1 sec-1 |  |
| CCOC(=O)/C=C/[C@H](CCC(N)=O)NC(=O)[C@H](Cc1ccccc1)NC(=O)[C@H](C[S+]([O-])Cc1ccccc1)NC(=O)OCc1ccccc1 (stereo partly drawn) [Compound 166] | 7,700 M-1 sec-1 | 5.25 | 3,500 M-1 sec-1 | > 100 | 40,900 M-1 sec-1 |  |
| CCOC(=O)/C=C/[C@H](CCC(N)=O)NC(=O)[C@H](Cc1ccccc1)NC(=O)[C@H](CC(C)C)NC(=O)c1ccc(Oc2ccccc2)cc1 [Compound 104] |  |  |  |  |  | pKi [1]: 5.82; pEC50 [2, 8]: 5.28; CC50 at 2 days [6]: > 320 µM; pKi [5]: 5.60; kinact/KI [5]: 8000 M⁻¹ s⁻¹ |
| CCOC(=O)/C(C)=C/[C@H](CCC(N)=O)NC(=O)[C@H](Cc1ccccc1)NC(=O)[C@H](CC(C)C)NC(=O)SC(C)C [Compound 171] | 3,250 M-1 sec-1 | 6.15 | 830 M⁻¹ s⁻¹ | > 100 | 21,200 M-1 sec-1 |  |
| CC(C)C[C@H](NC(=O)OCc1ccccc1)C(=O)N[C@@H](Cc1ccccc1)C(=O)N[C@H](/C=C/C(=O)N1CCCC1=O)CCC(N)=O [Compound 61] | 25,000 M-1 sec-1 | 6.05 | 14,000 M-1 sec-1 | 56 | 125,940 M-1 sec-1 |  |
| CC(C)C[C@H](NC(=O)OCc1ccccc1)C(=O)N[C@@H](Cc1ccccc1)C(=O)N[C@H](/C=C/C(=O)N1CCOC1=O)CCC(N)=O [Compound 62] | 300,000 M-1 sec-1 | 5.80 | 600,000 M-1 sec-1 | > 100 | 600,000 M-1 sec-1 |  |
| CCOC(=O)/C=C/[C@H](CCC(N)=O)NC(=O)[C@H](Cc1ccccc1)NC(=O)[C@@H](NC(=O)SCC)C(C)(C)C [Compound 167, Ethyl-3-[Ethylthiocarbonyl-L-α-(t-Butyl-Gly)-L-Phe-L-Gln]-E-Propenoate] | 42,100 M-1 sec-1 | 7.08 | 10,700 M-1 sec-1 | > 100 | 165,400 M-1 sec-1 |  |
| CCOC(=O)C=CC(CCC(N)=O)NC(=O)C(Cc1ccccc1)NC(=O)C(NC(=O)OCc1ccccc1)C(C)CC (stereo not drawn) [Compound 172] | 6,000 M-1 sec-1 | 6.10 | 2,000 M-1 sec-1 | > 100 | 31,700 M-1 sec-1 |  |
| CCOC(=O)/C=C/[C@H](CCC(N)=O)NC(=O)[C@H](CC1CCCCC1)NC(=O)[C@H](CC(C)C)NC(=O)OCc1ccccc1 [Compound 135] | 3,465 M-1 sec-1 | 5.72 | 671 M⁻¹ s⁻¹ |  | 16,270 M-1 sec-1 | CC50 [4, 10]: > 320 µM |
| CCOC(=O)/C=C/[C@H](CCC(N)=O)NC(=O)[C@H](Cc1ccc(CO)cc1)NC(=O)[C@H](CC(C)C)NC(=O)OCc1ccccc1 [Compound 114] |  |  |  |  |  | pEC50 [2, 8]: 6.26; kinact/KI ([3]; pH 7.6, progress curves in enzyme start experiments, read-out: kobs/I): 1970 M⁻¹ s⁻¹; CC50 at 2 days [6]: > 320 µM; pKi [5]: ≤ 6.00; kinact/KI [5]: 82300 M⁻¹ s⁻¹ |
| CC(C)CC(NC(=O)OCc1ccccc1)C(=O)NC(Cc1ccccc1)C(=O)NC(C=C1CCOC1=O)CCC(N)=O (stereo not drawn) [Compound 90] | 3,600 M-1 sec-1 | 5.28 |  | > 320 | 10,918 M-1 sec-1 |  |
| CCOC(=O)/C=C/[C@H](CCC(N)=O)NC(=O)[C@H](Cc1ccc(F)cc1)NC(=O)[C@H](CC(C)C)NC(=O)OCc1ccccc1 [Compound 35, Ethyl-3-[CBZ-L-Leu-L-(4-F-Phe)-L-Gln]-E-Propenoate] | 9,177 M-1 sec-1 | 5.74 | 2,357 M-1 sec-1 |  | 46,388 M-1 sec-1 | CC50 [4, 10]: > 320 µM; pKi [5, 9]: 4.78 |
| CCOC(=O)/C=C/[C@H](CCC(N)=O)NC(=O)[C@H](Cc1ccc(OC)cc1)NC(=O)[C@H](CC(C)C)NC(=O)OCc1ccccc1 [Compound 103] | 3,354 M-1 sec-1 | 5.77 | 1,106 M-1 sec-1 | > 320 | 29,200 M-1 sec-1 |  |
| CCOC(=O)/C=C/[C@H](CCC(N)=O)NC(=O)[C@H](Cc1ccc(C)cc1)NC(=O)[C@@H](NC(=O)SC1CCCC1)C(C)C [Compound 183] |  |  |  |  |  | kinact/KI ([1]; RVP serotype 16): 60000 M⁻¹ s⁻¹; pEC50 ([2]; Rhinovirus B, HRV14, 48 h): 7.52; CC50 at 2 days [6]: > 100 µM; pKi [5]: 6.26; kinact/KI [5]: 500000 M⁻¹ s⁻¹ |
| CCOC(=O)/C=C/[C@H](CCC(N)=O)NC(=O)[C@H](Cc1ccccc1)NC(=O)[C@H](CSc1ccccc1)NC(=O)SC1CCCC1 [Compound 173, Ethyl-3-[Cyclopentylthiocarbonyl-L-(S-Ph-Cys)-L-Phe-L-Gln]-E-Propenoate] | 185,000 M-1 sec-1 | 7.10 | 113,000 M-1 sec-1 | > 100 | 1,000,000 M-1 sec-1 |  |
| CC(C)C[C@H](NC(=O)OCc1ccccc1)C(=O)N[C@@H](Cc1ccccc1)C(=O)N[C@H](/C=C/C(=O)N1CCc2cc(S(=O)(=O)N(C)C)ccc21)CCC(N)=O [Compound 88] |  |  |  |  |  | pEC50 [2, 8]: 5.06; CC50 at 2 days [6]: > 160 µM; pKi [5]: < 4.52; kinact/KI [5]: 8960 M⁻¹ s⁻¹ |
